The record followed here is patent US7049336B2, “Method for diagnosing neuronal diseases and for treating primary hemostasis deficiency” (Max-Delbruck-Centrum fur Molekularc Medizin, priority 2000, dated 2006).

The experiment deals with TPH(−/−)-mice. As to the kind of experiment: Bleeding time (disturbed hemostasis) in TPH(−/−)-mice after intracardial injection. The experiment is classed as in vivo, mouse. To be noted: for Effect on prolonged bleeding time phenotype: TPH(−/−)-mice. An excerpt:
FIG. 3. Disturbed hemostasis in TPH(−/−)-mice. • A. Prolonged bleeding times of TPH(−/−)-animals. […] The 5-HT-amounts applied result in 1/10 and the ten-fold of the normal blood concentrations. • C. […] The effect is specific for the TPH(−/−)-mice, whereas control-animals are not affected.

On to `NCCc1c[nH]c2ccc(O)cc12` [5-HT, serotonin, reference compound], for which the “Effect on prolonged bleeding time phenotype” value (intracardial 5-HT-injection, amounts result in 1/10 and the ten-fold of the normal blood concentrations) is “Healing of the phenotype”.

As for “von Willebrand-factor: commercially available von Willebrand-factor (vWF)”, the “Effect on prolonged bleeding time phenotype” value (intracardial von Willebrand-factor injection) is given as “Healing of the phenotype”. Besides, for the setting “control-animals, intracardial von Willebrand-factor injection”, the “Effect on bleeding time in control-animals” value is on record as “not affected”.
